“Also recorded” adds a separate entry of the source.
How the values were obtained:
[1] = Color (Hunter coordinates) of Ni complex, swabbed on Ni-coated receptor (CF) sheet; assay type: physicochemical; set-up: key to Hunter coordinate a / Hunter Coordinates a: Hunter a: +a red, -a green; key to Hunter coordinate b / Hunter Coordinates b: Hunter b: +b yellow, -b blue; conditions: for Chroma: C=(a^2 +b^2)^1/2; for Chroma / Hunter Coordinates L / Hunter Coordinates a / Hunter Coordinates b / Image Color: Ni(II) complex; for Chroma / Image Color: swab concn. 1% (Table 2); for Hunter Coordinates L / Hunter Coordinates a / Hunter Coordinates b: swab concn. 1%, 45°/0° reflectance, illuminant C (Table 2); for color of nickel / transition metal coordination compound (in words) / Chroma (in words): description
Experimental: In general, the colors of the complexes, as listed in Table 2 and Experiments 4, 6, and 7 below, were determined by preparing a 1% solution of the color-former or mixture of color-formers in an appropriate solvent. Unless otherwise indicated, the solvent was composed of a mixture of tributyl phosphate (26.5%), diethyl phthalate (17.6%), and cyclohexane (55.9%). The images were formed by applying two stripes of the solution to a substrate coated with a Ni^2+ coated receptor sheet using a cotton tipped applicator swab. Rapid and complete development of the image was achieved by passing the sheet through a hot shoe adjusted to 102° C., making a revolution every 10 seconds. The visually observed colors were measured and recorded.
One method of color measurement is to determine the color's position in color space. One color space system is the Hunter System; see F. W. Billmeyer, Jr., and M. Saltzman, Principles of Color Technology; John Wiley & Sons; New York, N.Y.; Ch. 2 & 3, 1981. In this system three mutually perpendicular axes (L, a, and b) are needed to define a color. "L" (+z axis) represents the lightness or darkness of the image; "a" (x axis) represents the amount of red or green (+a is red, -a is green); and "b" (y axis) represents the amount of yellow or blue (+b is yellow, -b is blue). By measuring a material's L, a, and b values, the color of one sample can be compared with that of other samples. Another value used in the Hunter System is Chroma (C). Chroma is defined by the equation [C=(a^2 +b^2)^1/2 ] and represents the distance of the image coordinates from the origin. The greater the Chroma, the more intense the image. Chroma is used to compare images cf the same hue. Because the color of a sample is also dependent upon the color temperature of the illuminating source, the angle at which the sample is illuminated, the angle at which the illumination is reflected, and the angle of the retina illuminated, these all need to be specified. Many instruments have been developed to record these values. One such instrument is the HunterLab LabScan II. This instrument is capable of automatically determining the L, a, and b values for a given sample, and was used for the following examples.
The L, a, and b color coordinates of the more uniform stripe were measured for 45°/0° reflectance on a HunterLab LabScan II, secondary observer, using illuminant C. The observed (image) color and the Hunter coordinates for Ni^2+ complexes of the yellow color-formers of this invention are given in Table 2.
A 1% solution of the condensation product in the encapsulation fill mix was swabbed onto a carbonless paper CF sheet (sold by the 3M Co. St. Paul, Minn.) with a cotton swab. The reflectance spectra had Hunter coordinates of: […]

[2] = Solubility in capsule fill solvents; assay type: physicochemical
Experimental: The encapsulation process requires the color-forming ligand be dissolved in a solvent or mixed solvents, because of the nature of the procedure. Formation of a microcapsule shell as by condensation of urea or melamine with an aldehyde such as formaldehyde or mixtures of aldehydes to form the capsule shell is carried out in an acidic aqueous medium and the color-former solution must be insoluble and unreactive to these reagents for the encapsulation to proceed. Solvents commonly used include tributyl phosphate, diethyl phthalate, and cyclohexane. […] As mentioned above, solubility of yellow color-formers exemplified by structure I in nonaqueous solvents such as those used in the encapsulation process may be increased by substituting alkyl, aryl, aralkyl, alkenyl, or such groups for the hydrogens on the various positions available in the structure I above.
This color observed on the CF sheet was yellow. […] Solubility in a solvent blend of tributyl phosphate, diethyl phthalate and cyclohexane (capsule solvents for preparing carbonless copy-paper) was >9% by weight. Thus the ligand is eminently suitable for encapsulation. The ligand is not volatile at 71 ° C. overnight.
Solubility in a solvent blend of tributyl phosphate, diethyl phthalate and cyclohexane (capsule solvents for preparing carbonless copy-paper) was 3% by weight. Thus the ligand is eminently suitable for encapsulation. The ligand is not volatile at 71 ° C. overnight.
*THE SOLUBILITY WAS DEEMED PREFERABLE IF IT WAS GREATER THAN 2% IN THE
FILL MIX AT ROOM TEMPERATURE FOR 3 DAYS. THE FILL MIX COMPRISED
TRIBUTYLPHOSPHATE (26.5%); DIETHYLPHTHALATE (17.6%); AND CYCLOHEXANE

## CC(C)(C)c1cc(C=NN=C(N)C(N)=NN=Cc2cc(C(C)(C)C)c(O)c(C(C)(C)C)c2)cc(C(C)(C)C)c1O [Compound 2, Ethanediimidic acid bis[(4-hydroxy-3,5-di-t-butylphenylmethylene)hydrazide]]
[1]
  Chroma: 19.2
  Hunter Coordinates L: 90.0
  Hunter Coordinates a: -8.0
  Hunter Coordinates b: 17.6
  color of nickel / transition metal coordination compound (in words): much weaker
[1]; nickel complex
  Chroma (in words): lower Chroma
[2]; 4320 min
  Dye Solubility: > 2.0%

## NC(=NN=Cc1cc(Br)ccc1O)C(N)=NN=Cc1cc(Br)ccc1O [Compound 3, Ethanediimidic acid bis[(2-hydroxy-5-bromophenylmethylene)hydrazide]]
[1]
  Chroma: 41.1
  Image Color: Yellow
  Hunter Coordinates L: 81.9
  Hunter Coordinates a: -7.5
  Hunter Coordinates b: 40.5
[2]; 4320 min
  Dye Solubility: < 2.0%

## NC(=NN=Cc1cc([N+](=O)[O-])ccc1O)C(N)=NN=Cc1cc([N+](=O)[O-])ccc1O [Compound 4, Ethanediimidic acid bis[(2-hydroxy-5-nitrophenylmethylene)hydrazide]]
[1]
  Chroma: 40.1
  Image Color: Yellow
  Hunter Coordinates L: 83.9
  Hunter Coordinates a: -9.7
  Hunter Coordinates b: 38.9
[2]; fill mix tributylphosphate (26.5%), diethylphthalate (17.6%), cyclohexane (55.9%), room temperature, 3 days (Table 2)
  Dye Solubility: < 2.0%

## CCN(CC)c1ccc(C=NN=C(N)C(N)=NN=Cc2ccc(N(CC)CC)cc2O)c(O)c1 [Compound 5, Ethanediimidic acid bis[(2-hydroxy-4-diethylaminophenylmethylene)hydrazide]]
[1]
  Chroma: 41.4
  Image Color: Yellow
  Hunter Coordinates L: 80.9
  Hunter Coordinates a: -5.2
  Hunter Coordinates b: 41.0
[2]; 4320 min
  Dye Solubility: < 2.0%

## CC(=NN=C(N)C(N)=NN=C(C)c1ccccc1O)c1ccccc1O [Compound 6, Ethanediimidic acid bis[(2-hydroxyphenyl-methyl-methylene)hydrazide]]
[1]
  Chroma: 20.1
  Image Color: Yellow
  Hunter Coordinates L: 48.3
  Hunter Coordinates a: -5.3
  Hunter Coordinates b: 19.4
  color of nickel / transition metal coordination compound (in words): yellow
[2]; 4320 min
  Dye Solubility: < 2.0%

## CCOC(=O)CC(C)=NN=C(N)C(N)=NN=C(C)CC(=O)OCC [Compound 7]
[1]
  Chroma: 15.4
  Hunter Coordinates L: 89.4
  Hunter Coordinates a: -5.8
  Hunter Coordinates b: 14.3
[2]; 4320 min
  Dye Solubility: > 2.0%

## NC(=NN=C(c1ccccc1)c1ccc(O)cc1O)C(N)=NN=C(c1ccccc1)c1ccc(O)cc1O [Compound 8, Ethanediimidic acid bis[(2,4-dihydroxyphenyl-phenyl-methylene)hydrazide]]
[1]
  Chroma: 18.0
  Hunter Coordinates L: 88.0
  Hunter Coordinates a: -6.0
  Hunter Coordinates b: 17.0
[2]; 4320 min
  Dye Solubility: < 2.0%

## COc1cccc(C=NN=C(N)C(N)=NN=Cc2cccc(OC)c2O)c1O [Compound 10, Ethanediimidic acid bis[(2-hydroxy-3-methoxyphenylmethylene)hydrazide]]
[1]
  Chroma: 36.2
  Image Color: Yellow
  Hunter Coordinates L: 86.4
  Hunter Coordinates a: -11.1
  Hunter Coordinates b: 34.5
[2]; 4320 min
  Dye Solubility: < 2.0%

## CCOc1cccc(C=NN=C(N)C(N)=NN=Cc2cccc(OCC)c2O)c1O [Compound 11, Ethanediimidic acid bis[(2-hydroxy-3-ethoxyphenylmethylene)hydrazide]]
[1]
  Chroma: 39.3
  Image Color: Yellow
  Hunter Coordinates L: 88.4
  Hunter Coordinates a: -15.2
  Hunter Coordinates b: 36.2
[2]; 4320 min
  Dye Solubility: < 2.0%

## NC(=NN=Cc1ccco1)C(N)=NN=Cc1ccco1 [Compound 12, Ethanediimidic acid bis[(furylmethylene)hydrazide]]
[1]
  Chroma: 25.8
  Image Color: Yellow
  Hunter Coordinates L: 89.4
  Hunter Coordinates a: -10.6
  Hunter Coordinates b: 23.5
[1]; nickel complex
  Chroma (in words): intermediate between that of aliphatic and the preferred o-substituted ligands
[2]; 4320 min
  Dye Solubility: < 2.0%

## NC(=NN=Cc1cccs1)C(N)=NN=Cc1cccs1 [Compound 13, Ethanediimidic acid bis[(2-thienylmethylene)hydrazide]]
[1]
  Image Color: Brown
  Hunter Coordinates L: 72.6
  Hunter Coordinates a: 11.2
  Hunter Coordinates b: 13.9
[1]; nickel complex
  Chroma (in words): intermediate between that of aliphatic and the preferred o-substituted ligands
[2]; 4320 min
  Dye Solubility: < 2.0%

## NC(=NN=Cc1ccccn1)C(N)=NN=Cc1ccccn1 [Compound 14, Ethanediimidic acid bis[(2-pyridylmethylene)hydrazide]]
[1]
  Chroma: 35.0
  Image Color: Yellow
  Hunter Coordinates L: 86.5
  Hunter Coordinates a: -11.0
  Hunter Coordinates b: 33.2
[1]; nickel complex
  Chroma (in words): intermediate between that of aliphatic and the preferred o-substituted ligands
[2]; 4320 min
  Dye Solubility: < 2.0%

## CCCCCCC=NN=C(N)C(N)=NN=CCCCCCC [Compound 15]
[1]
  Chroma: 11.6
  Hunter Coordinates L: 89.9
  Hunter Coordinates a: -4.2
  Hunter Coordinates b: 10.8
  color of nickel / transition metal coordination compound (in words): very weakly yellow; also recorded: weak yellow
[1]; nickel complex
  measured reflectance density (in words): low
  Chroma (in words): low and low Chroma value
[2]; 4320 min
  Dye Solubility: > 2.0%

## NC(=NN=Cc1c(O)ccc2ccccc12)C(N)=NN=Cc1c(O)ccc2ccccc12 [Compound 17, Ethanediimidic acid bis[(2-hydroxy-1-naphthylmethylene)hydrazide]]
[1]
  Chroma: 28.5
  Image Color: Yellow
  Hunter Coordinates L: 86.6
  Hunter Coordinates a: -6.5
  Hunter Coordinates b: 27.8
[2]; 4320 min
  Dye Solubility: < 2.0%
